Assays:
human skin explants = experiment: UVB-induced MVP formation in human skin explants ex vivo; type: cell-based; details: 4 h
Text: Four hours post-UVB triplicate skin biopsies were obtained and MVP quantified.

TNFα and IL-6 mRNA = experiment: UVB-induced cytokine mRNA (qRT-PCR) in mouse skin biopsies; type: in vivo; details: mice, topical post-UVB, skin biopsies 4 h
UVB-induced erythema = experiment: UVB-induced skin erythema (Mexameter) in wild-type and XPA KO mice; type: in vivo; details: WT and XPA KO mice, 5 kJ/m^2 UVB, 100 μL 500 μM topical immediately after, 4 h; effect most noted in XPA KO
Method: Erythema was measured by a Mexameter® device (Courage+Khazaka electronic GmbH, Cologne, Germany) before treatment and after 4 hours of treatment. […] UVB-induced skin inflammation involves many cytokines including interleukin-6 (IL-6) and tumor necrosis factor-alpha (TNFα).
Groups of 6-8 mice underwent erythema measurements with a Mexameter® device before irradiation with various fluences (1.0, 2.5, and 5.0 kJ/m^2) of UVB or no UVB (sham), and four hours later erythema was measured to determine the cutaneous erythema and cytokine responses of UVB irradiation on wild-type vs XPA KO mice. Similarly, triplicate skin biopsies were obtained and mRNA isolated, and quantitative reverse transcription polymerase chain reaction (qRT-PCR) used to quantify mRNA levels of cytokines TNF ? and IL-6. The housekeeping gene GAPDH was used as control. […] The data is shown as the mean±S.E. of fold change in baseline erythema levels. * Denotes statistically significant (P<0.05) differences between UVB- and sham-treated mice. #Denotes statistically significant (P<0.05) differences between XPA KO and wild-type erythema responses.
The data is shown as the mean±S.E. of fold change in baseline erythema levels. * Denotes statistically significant (P<0.05) differences between UVB- and sham-treated mice

HaCaT XPA KO = experiment: UVB-induced MVP release in HaCaT XPA deficient cells; type: cell-based, human; details: HaCaT XPA KO cell line
Method: HaCaT cells and HaCaT XPA deficient cells received no treatment (NT) or 1 KJ/m^2, 2.5 KJ/m^2, or 5 KJ/m^2 UVB radiation. After 4 hours, the supernatant was removed and the MVP concentration was measured. The numbers of MVP shown in FIG. 1 were normalized to cell count and NT. Data in FIG. 1 show the mean+S.E. fold change of at least three experiments. Groups were compared using One-Way ANOVA. (P<0.01) was considered statistically significant. * denotes changes between NT and UVB. #denotes changes between HaCaT and HaCaT XPA deficient cells.

aSMase = details: cited from earlier work
[1] = hairless mice, effect of propylene glycol; cited from earlier work
UVB-induced MVP release [2] = experiment: MVP release after localized UVB irradiation of volar forearm of human subjects; type: in vivo; details: human photosensitive vs normal subjects, 1 KJ/m^2 UVB, 4% imipramine immediately after, biopsies 4 h
Text: FIG. 22A compares normal subjects to subjects who have active photosensitivity disorders as denoted by positive screening. […] The individual data points are shown in FIG. 22A with the mean±SE of the groups for the UVB+vehicle for the normal and photosensitive subjects.

UVB-induced MVP release [3] = experiment: MVP release in skin and plasma of wild-type and XPA KO mice after UVB or topical agonists; type: in vivo; details: WT and XPA KO mice, 5 kJ/m^2 UVB, 500 μM imipramine topical immediately post-UVB, 4 h
Text: The enzyme aSMase is also known to generate MVP in response to many stressors such as UVB via activation of PAFR. Yet other stimuli such as in response to a phorbol ester (TPA) are independent of the PAFR. Therefore, administration of inhibitors of aSMase may block UVB-MVP release in XPA deficient model, as well as in other situations where MVP release is independent of the PAFR.
Groups of 8-13 wild-type (C57BL/6) and XPA KO mice received no treatment (NT) or 1 KJ/m^2, 2.5 kJ/m^2, or 5 KJ/m^2 of UVB to their dorsal back skin. In some experiments, mice were treated with topical application of the PAFR agonist carbamoyl-PAF (CPAF; 50 μL of 100 μM) or the phorbol ester 12-O-tetradecanoylphorbol-13-acetate (TPA; 50 μL of 100 μM) in 90% ethanol: 10% DMSO vehicle. For the data in FIG. 2, triplicate skin biopsies were obtained and weighed four hours post-treatment, and MVP was measured. […] For the data in FIG. 3, plasma was obtained and MVP was measured four hours post-treatment. […] Data are the mean±S.E. fold change of MVP count. Groups were compared using One-Way ANOVA and Tukey's post-hoc test. Differences in samples were considered significant if the P value was less than 0.05. […]
For the data shown in FIG. 4, triplicate skin biopsies were obtained and MVP was measured. For the data shown in FIG. 5, plasma was obtained and MVP was measured. […]

[4] = system: PDT-induced immunosuppression; experiment: contact hypersensitivity (CHS) to DNFB after PDT, ear thickness; type: in vivo, mice; details: wild-type mice
Text: Five days later the mice underwent sensitization with the neoantigen DNFB. To test for local immunosuppression, DNFB was applied to the PDT-treated area. To test for systemic immunosuppression, the DNFB was applied to back skin at least 2 cm away from the PDT-treated area. Nine days later the mice underwent elicitation reactions to DNFB by application to one ear, with vehicle applied to the other ear. One day later the ear thickness was obtained as a measure of CHS reaction and compared to pre-treatment and vehicle-treated values. Some mice were treated with intraperitoneal CPAF as a positive control for systemic immunosuppression.
For the data shown in FIG. 20, wild-type mice either were injected intraperitoneally with 250 ng CPAF as a positive control for immunosuppression, underwent PDT using 10 J/cm^2 blue light, or received no treatment (SHAM). […] Five days later the mice underwent sensitization with DNFB in PDT-treated (local immunosuppression) or non-PDT-treated skin (systemic immunosuppression). Nine days later the mice underwent elicitation reactions to ears with ear thickness measured at 24 hours. For the data shown in FIG. 21, wild type and aSMase-deficient (Smpd1−/−) mice underwent treatment with CPAF or PDT followed by DNFB sensitization/elicitation reactions as in FIG. 20. The data are mean±SD values. * Denotes statistically significant (P<0.05) changes from sham treatment values using two-way ANOVA.

With `CN(C)CCCN1c2ccccc2CCc2ccccc21` [Imipramine] the “UVB-induced MVP formation, pre-treatment” value (human skin explants; 100 μL 500 μM applied 30 minutes before 2,500 J/m^2 UVB) was “blocks UVB-induced MVP formation”, the “UVB-induced MVP formation, post-treatment” value (human skin explants; 100 μL 500 μM applied immediately after 2,500 J/m^2 UVB) was “blocks UVB-induced MVP formation” and the “UVB-induced IL-6 mRNA” value (TNFα and IL-6 mRNA) was “blocks IL-6 mRNA responses”. The “UVB-induced TNFα mRNA” value (TNFα and IL-6 mRNA) was “blocks TNFα mRNA responses”, the UVB-induced erythema response (UVB-induced erythema) was “blocked the erythema responses” and the “increased MVP generation of XPA deficient keratinocytes” value (HaCaT XPA KO) was “blocked by imipramine”. The “Residual ASM Activity” value (aSMase; 10 micromolar, PC12 cells, incubation time 0.5 h, % of corresponding control values) was 32.6%, the “residual aSMase activity after treatment” value (aSMase; from Kornhuber et al. 2008) was 30.6% and the “absorption with propylene glycol” value [1] was “enhances absorption”. For the same compound, the “UVB-induced MVP release in forearm skin” value (UVB-induced MVP release [2]) was “blocks the increased MVP release selectively in the photosensitive subjects”, the “UVB-induced MVP in plasma” value (UVB-induced MVP release [3]) was “blocked MVP accumulation” and the “UVB-induced MVP in skin” value (UVB-induced MVP release [3]) was “blocked MVP accumulation in skin”. The “CPAF-induced systemic immunosuppression (CHS to DNFB)” value ([4]; 250 ng CPAF intraperitoneal, topical imipramine) was “did not affect the immunosuppressive effects of CPAF”, the “PDT-induced local immunosuppression (CHS to DNFB)” value ([4]; PDT 10 J/cm^2, 100 μL of 5% imipramine topical post-PDT, DNFB on PDT-treated skin) was “inhibited both local and systemic immunosuppression” and the “PDT-induced systemic immunosuppression (CHS to DNFB)” value ([4]; PDT 10 J/cm^2, 100 μL of 5% imipramine topical post-PDT, DNFB on non-PDT-treated skin) was “inhibited both local and systemic immunosuppression”.

Source: patent US20240245703A1, “TOPICAL APPLICATION OF AGENTS TO REDUCE SUN SENSITIVITY AND IMPROVE TOPICAL PHOTODYNAMIC THERAPY” (Wright State University, priority 2021, published 2024)
